Laboratory results from patent US20260091015A1, “TREATING IRON DEFICIENCY WITH FERRIC CARBOXYMALTOSE” (PHARMACOSMOS HOLDING A/S, priority 2018, published 2026).

Legend:
[1] = test system: PTH; assay: Intact PTH sandwich immunoassay, trials IDA-04/IDA-05; assay type: in vivo, human; conditions: IDA-04 and IDA-05 combined
From the text: The term “serum parathyroid hormone (PTH)” as used herein refers to the level of serum parathyroid hormone in blood serum as measured using a two-site sandwich immunoassay using direct chemiluminometric technology, which used constant amounts of two anti-human PTH antibodies. PTH, produced by the parathyroid gland, is the major circulating factor regulating extracellular calcium concentration. Abnormally low ionized calcium concentrations trigger the secretion of PTH. The PTH molecules bind to type 1 PTH receptors in target tissues and initiate a sequence of reactions that results in an increase in extracellular calcium concentrations. PTH stimulates osteoclastic bone resorption resulting in the release of calcium from bone. […]
The following safety laboratory assessments were analysed: • S-phosphate: inorganic phosphorous forms an ammonium phosphomolybdate complex having the formula (NH4)3[PO4](MoO3)12 with ammonium molybdate in the presence of sulfuric acid. The complex was determined photometrically in the ultraviolet region (340 nm) of the spectrum using the Roche Modular and Cobas Analyzer. • iFGF23 and cFGF23: the human intact FGF23 was measured by the 2nd generation Elisa kit manufactured by Immonotropics, Inc, San Clemente, CA. […] The human C-terminal FGF23 was measured by the Elisa kit manufactured by Immonotropics, Inc, San Clemente, CA. […]

[2] = test system: biochemical bone/muscle markers; assay: Biochemical bone/muscle markers (PINP, CTx, bone specific and total alkaline phosphatase), trials IDA-04/IDA-05; assay type: in vivo, human
From the text: The term “serum Bone Specific Alkaline Phosphatase” as used herein refers to the level of Bone specific Alkaline Phosphatase in blood serum as measured using the Beckman-Coulter Ostase assay which is a one-step immunoenzymatic chemiluminescence assay using a mouse monoclonal antibody specific to Bone Specific Alkaline Phosphatase (BAP).
The term “serum Alkaline Phosphatase” as used herein refers to the level of Alkaline Phosphatase in blood serum as measured enzymatically using a Roche Modular Analyzer. In the presence of magnesium and zinc ions, p-nitrophenyl phosphate is cleaved by phosphatase into phosphate and p-nitrophenol. The p-nitrophenol released is proportional to the Alkaline Phosphatase activity and is measured photometrically.
The term “serum N-terminal Propeptide of Type I Collagen (PINP)” as used herein refers to the level of PINP in blood serum as measured using a sandwich principle, electrochemiluminescence immunoassay (ECLIA) on a Cobas e601 Analyzer. During the first incubation, PINP in the sample and a biotinylated monoclonal PINP-specific antibody are incubated together. During the second incubation, streptavidin-coated labelled microparticles and a monoclonal PINP-specific antibody labelled with ruthenium complex (Trs (2,2-bipyridyl)ruthenium (II)-complex (Ru(bpy)23+)) are added to form a sandwich complex, which binds to the solid phase via interaction of biotin and streptavidin. The reaction mixture is aspirated into the measuring cell where the microparticles are magnetically captured onto the surface of the electrode. A voltage is applied to the electrode, which induces chemiluminescent emission, which is measured by a photomultiplier. Results are determined via a calibration curve, which is instrument-specifically generated by a 2-point calibration and a master curve provided via the reagent barcode.
The term “serum Carboxy-terminal Collagen Crosslinks (CTx)” as used herein refers to the level of CTx in blood serum as measured using a sandwich principle, electrochemiluminescence immunoassay (ECLIA) on a Cobas e601 Analyzer. During the first incubation, 50 μL of sample and biotinylated monoclonal anti-beta-CrossLaps antibodies are incubated together. During the second incubation, streptavidin-coated labelled microparticles and a monoclonal P-beta-CrossLaps-specific antibody labelled with ruthenium complex are added to form a sandwich complex, which binds to the solid phase via interaction of biotin and streptavidin. The reaction mixture is aspirated into the measuring cell where the microparticles are magnetically captured onto the surface of the electrode. Unbound substances are then removed with ProCell. A voltage is applied to the electrode, which induces chemiluminescent emission, which is measured by a photomultiplier. Results are determined via a calibration curve, which is instrument-specifically generated by a 2-point calibration and a master curve provided via the reagent barcode.
The trial was a randomized, open-label, comparative trial. Subjects with Iron Deficiency Anaemia (IDA) were randomized 1:1 to one treatment course of one of the following treatments: • Group A: iron isomaltoside 1000 (Monofer®, Pharmacosmos, Holbok, Denmark, termed iron isomaltoside in the following), 1000 mg at baseline • Group B: ferric carboxymaltose (Ferinject®/Injectafer®, Vifor Inc, Switzerland), 750 mg at baseline and day 7, cumulative dose: 1500 mg […]

## ferric carboxymaltose [FCM]
[1]
  PTH: increase
[2]; compared to IMM
  Alkaline Phosphatase: statistically significant increase
  Bone Specific Alkaline Phosphatase: statistically significant increase
  CTx values: statistically significant lower
  N-terminal PINP values: statistically significant lower
[2]; treatment according to current practice
  bone turnover: increased
